Experiment [1] concerns HCT116 human colorectal carcinoma. Kind of experiment: Cell Proliferation Assay, HCT116. The experiment is classed as cell-based. The note with it: HCT-116, HCT116 cell line, 72 h, CellTiter-Glo. The procedure:
(§1) Compounds are tested in a cell proliferation assay using the following cell lines:
(§2) Both cell lines are maintained in DMEM/F12 (1:1) media (Gibco) supplemented with 10% FCS at 37° C. in a 5% CO2 humidified incubator.
(§3) Cells are seeded in 96-well plates at 2,000 cells/well and after 24 hours they are exposed to different concentrations of compounds in 0.83% DMSO. Cells are grown for a further 72 h, and an equal volume of CellTiter-Glo reagent (Promega) is added to each well. This lyses the cells and generates a luminescent signal proportional to the amount of ATP released (and therefore proportional to the number of cells in the well) that can be detected using a multi-well luminometer.
(§4) The EC50 is defined as the concentration at which a given compound achieves 50% inhibition of control. IC50 values are calculated using the XLfit software package (version 2.0.5).
(In general: Cellular ATP, detected with luciferase, serves as a proxy for viable cell number.)

Experiment [2] concerns A375 human malignant melanoma. Kind of experiment: Cell Proliferation Assay, A375. The experiment is classed as cell-based. The conditions noted are these: A-375, A375 cell line, 72 h, CellTiter-Glo. The method, then:
as §1, §2, §3, §4

In experiment [3] the test system is phospho-ERK in HCT116 cell line. Kind of experiment: Phospho-ERK Cell-Based Assay, HCT116. The conditions noted are these: Homo sapiens, HCT-116, exposure 2 h or 24 h. The method, then:
Compounds are tested in a cell-based phospho-ERK ELISA using the following cell lines:
as §2
Cells are seeded in 96-well plates at 2,000 cells/well and after 24 h they are exposed to different concentrations of compounds in 0.83% DMSO. Cells are grown for a further 2 h or 24 h, fixed with formaldehyde (2% final) and permeabilised with methanol. Following blocking with TBST-3% BSA, fixed cells are incubated with primary antibody (anti-phospho ERK from rabbit) over-night at 4° C. Cells are incubated with Propidium Iodide (DNA fluorescent dye) and detection of cellular p-ERK is performed using an anti-rabbit secondary antibody conjugated to the fluorescent Alexa Fluor 488 dye (Molecular probes). The fluorescence is analysed using the Acumen Explorer (TTP Labtech), a laser-scanning microplate cytometer, and the Alexa Fluor 488 signal is normalised to the PI signal (proportional to cell number).
The EC50 is defined as the concentration at which a given compound achieves a signal half way between the baseline and the maximum response. EC50 values are calculated using the XLfit software package (version 2.0.5).

Experiment [4] concerns the target constitutively activated human mutant MEK1 (Homo sapiens, UniProt Q02750). Kind of experiment: MEK Assay (MEK Activity Assay). The experiment is classed as biochemical. The conditions noted are these: 15 nM MEK1, 50 μM ATP, GST-ERK1 substrate, 30 minutes, HTRF; read-out: IC50 in the MEK activity assay of Example 1. The method, then: Constitutively activated human mutant MEK1 expressed in insect cells is used as source of enzymatic activity at a final concentration in the kinase assay of 15 nM.
The assay is carried out for 30 minutes in the presence of 50 μM ATP using recombinant GST-ERK1 produced in E. Coli as substrate. Phosphorylation of the substrate is detected and quantified using HTRF reagents supplied by Cisbio. These consist of an anti-GST antibody conjugated to allophycocyanin (XL665) and an anti-phospho (Thr202/Tyr204) ERK antibody conjugated to europium-cryptate. These are used at a final concentration of 4 μg/ml and 0.84 μg/ml respectively. The anti-phospho antibody recognises ERK1 dually phosphorylated on Thr202 and Tyr204. When both antibodies are bound to ERK1 (i.e. when the substrate is phosphorylated), energy transfer from the cryptate to the allophycocyanin occurs following excitation at 340 nm, resulting in fluorescence being emitted that is proportional to the amount of phosphorylated substrate produced. Fluorescence is detected using a multiwell fluorimeter.
Compounds are diluted in DMSO prior to addition to assay buffer and the final DMSO concentration in the assay is 1%.
The IC50 is defined as the concentration at which a given compound achieves 50% inhibition of control. IC50 values are calculated using the XLfit software package (version 2.0.5).
In general terms: In TR-FRET formats the signal depends on donor and acceptor labels being close together.

Structures are written as SMILES. A value given as a limit tells only on which side of the number the result lay.

Sequence of constitutively activated human mutant MEK1 (Q02750 whole entry S218D/S222D, form open): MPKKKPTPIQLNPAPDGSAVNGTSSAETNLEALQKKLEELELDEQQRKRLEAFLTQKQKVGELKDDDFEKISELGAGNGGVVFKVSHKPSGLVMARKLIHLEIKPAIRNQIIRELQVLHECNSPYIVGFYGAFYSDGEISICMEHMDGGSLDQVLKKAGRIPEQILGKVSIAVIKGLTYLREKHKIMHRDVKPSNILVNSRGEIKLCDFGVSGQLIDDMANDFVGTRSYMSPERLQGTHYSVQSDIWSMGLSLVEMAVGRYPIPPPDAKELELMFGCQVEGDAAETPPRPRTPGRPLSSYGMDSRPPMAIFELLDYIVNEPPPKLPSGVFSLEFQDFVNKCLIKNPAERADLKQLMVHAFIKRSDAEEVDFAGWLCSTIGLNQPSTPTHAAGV

One may read the EC50 as the concentration at which the effect is half-maximal. One may read the IC50 as the midpoint of a concentration-inhibition curve. For the compound `O=C1NCc2cc(C(=O)NOCCO)c(Nc3ccc(I)cc3F)cc21` [Example 5, 6-(2-Fluoro-4-iodo-phenylamino)-1-oxo-2,3-dihydro-1H-isoindole-5-carboxylic acid (2-hydroxy-ethoxy)-amide], the concentration for a half-maximal effect (EC50) in experiment [1], in experiment [2] and in experiment [3] was less than 500 nM throughout. Further, the IC50 in experiment [4] is less than 100 nM.
